Assay results: ChEMBL document CHEMBL1201862, “PubChem BioAssay data set” (2004)
Calls of active or inactive are those of the source.

Tests used:
[1] = insulin promoter down-regulators in MIN6 cells, imaging, high-content screening, mouse beta cells (AID 1628); assay type: functional
BJ [2] = experiment: cells; assay type: functional, cell-based; conditions: Homo sapiens
BJ [3] = experiment: cytotoxicity toward BJ-TERT fibroblasts, dose response, cell-based, RAS-independent, luminescence (AID 1933); assay type: functional; conditions: Homo sapiens
BJ [4] = experiment: cytotoxicity toward BJ-TERT-LT-ST fibroblasts, dose response, cell-based, RAS-independent, luminescence (AID 1935); assay type: functional; conditions: Homo sapiens;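 also: BJ fibroblasts immortalized with TERT plus LT and ST oncogenes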
[5] = Luminescence Cell-Based Dose Retest to Confirm Inhibitors of Cancer Stem Cells. [Related pubchem assays (depositor defined):AID2717, AID2721]; assay type: functional; conditions: Homo sapiens
[6] = cytotoxicity toward DRD oncogenic fibroblasts, dose response, cell-based, non-viral oncogenic, luminescence (AID 1934); assay type: functional; conditions: Homo sapiens
[7] = cytotoxicity in MIN6 insulinoma cells, dose response, cytotoxicity control, cell-based, mouse insulinoma (AID 2122); assay type: functional;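 also: confirmatory high-throughput counterscreen run to flag cytotoxic compounds; mouse MIN-6 beta cells carrying an insulin promoter eGFP reporter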
HEK293 [8] = experiment: cells; assay type: functional, cell-based; conditions: Homo sapiens
[9] = target: FAD-linked sulfhydryl oxidase ALR (Homo sapiens, UniProt P55789); experiment: inhibitors of human ALR sulfhydryl oxidase, dose response, biochemical, H2O2 detection, luminescence, cherry-pick (AID 493248)
[10] = target: Nuclear receptor subfamily 0 group B member 1 (Homo sapiens, UniProt P51843); experiment: Luminescence-based cell-based high throughput dose response assay for inhibitors of the orphan nuclear receptor subfamily 0, group B, member 1 (DAX1; NR0B1). [Related pubchem assays (depositor defined):AID504766, AID504790]; assay type: functional
Escherichia coli = experiment: microbe, parasite or virus in culture
HEK293 [11] = experiment: inhibitors of LMP1-driven NF-kB reporter, dose response, cell-based, HEK293, luciferase, cherry-pick (AID 588343); assay type: functional; conditions: Homo sapiens
[12] = target: Dual specificity tyrosine-phosphorylation-regulated kinase 1A (Rattus norvegicus, UniProt Q63470); assay type: biochemical, Homo sapiens

Sequence of Nuclear receptor subfamily 0 group B member 1 (P51843 whole entry): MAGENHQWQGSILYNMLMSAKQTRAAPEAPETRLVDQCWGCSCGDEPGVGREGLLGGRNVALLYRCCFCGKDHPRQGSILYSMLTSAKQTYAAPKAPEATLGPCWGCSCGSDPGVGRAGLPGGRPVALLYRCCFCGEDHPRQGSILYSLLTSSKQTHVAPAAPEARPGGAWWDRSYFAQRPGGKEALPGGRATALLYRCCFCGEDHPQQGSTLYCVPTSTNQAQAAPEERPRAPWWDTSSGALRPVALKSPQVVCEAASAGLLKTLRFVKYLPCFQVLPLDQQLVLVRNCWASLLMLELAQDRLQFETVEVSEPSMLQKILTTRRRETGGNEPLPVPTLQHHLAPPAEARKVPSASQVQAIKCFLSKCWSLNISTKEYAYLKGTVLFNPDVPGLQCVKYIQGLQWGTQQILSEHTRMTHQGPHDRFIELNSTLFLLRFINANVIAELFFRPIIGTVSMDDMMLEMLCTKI
Sequence of FAD-linked sulfhydryl oxidase ALR (P55789 whole entry): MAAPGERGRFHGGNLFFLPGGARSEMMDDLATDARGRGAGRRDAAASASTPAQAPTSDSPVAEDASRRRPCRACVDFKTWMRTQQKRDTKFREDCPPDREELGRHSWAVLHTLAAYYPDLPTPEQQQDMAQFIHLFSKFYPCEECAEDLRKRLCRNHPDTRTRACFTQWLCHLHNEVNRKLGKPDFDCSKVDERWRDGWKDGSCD

Q: What does the source list for `O=C(CCC1CCCC1)Nc1ccc(C(=O)NCc2cccnc2)cc1`?
A: IC50 [1]: 0.331 µM (active); EC50 (BJ [2]): 0.672 µM (inconclusive); EC50 (BJ [3]): > 150 µM (not active); EC50 (BJ [4]): 1.53 µM (inconclusive); AC50 [5]: 0.882 µM (active); EC50 [6]: > 150 µM (not active); IC50 [7]: > 16 µM (inactive)

Q: Which results are given for `Cc1c(Cl)cccc1NC(=O)CCC(=O)N/N=C/c1ccc[nH]1`?
A: IC50 [1]: 2.31 µM (active); IC50 [7]: 2.36 µM (active)

Q: For `COc1ccc(/C=N/Nc2nc3ccccc3[nH]2)c(OC)c1OC`, which IC50 (HEK293 [8]) is on record?
A: Its IC50 is > 67.5 µM (inactive).

Q: What about the AC50 [9] of the same compound?
A: The AC50 was 0.278 µM (active).

Q: And the IC50 [10]?
A: The IC50 was > 67.5 µM (inactive).

Q: For `COc1cccc(C(=O)Nc2cc([N+](=O)[O-])ccc2N2CCN(C)CC2)c1`, which AC50 (Escherichia coli) is on record?
A: Its AC50 is 25.5 µM (active).

Q: Which AC50 (HEK293 [11]) does the source give for `CC1=C(C(=O)OCc2ccc3c(c2)OCO3)C(c2ccccc2)NC(=O)N1` (configuration not stated) here?
A: The AC50 was 6.3 µM (active).

Q: And the AC50 [12]?
A: The AC50 was 0.695 µM (active).

Q: Which IC50 (HEK293 [8]) does the source give for `Cc1ccc2nc(NC(=O)c3ccc(Cl)s3)sc2c1` here?
A: The IC50 was > 67.5 µM (inactive).

Q: What about the IC50 [10] of the same compound?
A: Its IC50 is > 67.5 µM (inactive).
